From patent publication US20070105787A1, “Use of ribose in recovery from anaesthesia” (priority 2004, published 2007)

Experiments:
[1] = system: sheep undergoing aortic valve replacement under general anaesthesia
[2] = system: recovery from general anaesthesia; assay: anecdotal reports, non-cardiac surgery with general anaesthesia; type: in vivo, human; settings: person, vs first operation
Text: A. Anecdotal Results from Non-Cardiac Surgery with General Anaesthesia. […] For example, a person underwent two hip replacement operations, five months apart. With the second operation, they began taking oral ribose immediately after their recovery from anaesthesia. Their recovery to a feeling of alertness and energy was more rapid than after the first operation. Furthermore, their level of pain was less. Likewise, a person also underwent two knee replacement operations. With the second operation, they self-administered D-Ribose pre- and postoperatively. Their recovery to a feeling of alertness and energy was more rapid than after the first operation. Bauer et al. (Z. Geb. Neonatal 2001 May-June, 205(3):80-85) studied the efficacy of oral glucose for treating procedural pain in neonates. […] The authors proposed that the orogustatory stimulation by the sweet taste caused an endorphin release. It is not known whether the result seen was due to the local effect or to a systemic effect of glucose.

[3] = system: Wistar rats, recovery from general anaesthesia; assay: planned rat sham abdominal surgery study under halothane anaesthesia; type: in vivo; settings: D-Ribose before, during and after sham operation, vs D-Glucose placebo
Protocol: Littered-paired Wistar rats will be preconditioned with oral D-Ribose (250 mg/day, 10 animals) as a test drug or D-Glucose (250 mg/day, 10 animals) as a placebo for five days. Following the preconditioning, the rats will be anesthetized with halothane, intubated for artificial respiration and paralyzed with curare. Following general anaesthesia, the rats will be given either the test drug or placebo, intravenously (IV). A two-inch abdominal incision will be made and the viscera will be carefully manipulated to simulate an abdominal exploratory surgery. The incision will be closed and the animals will be held under anaesthesia for one additional hour. Following that hour, anaesthesia will be discontinued and the IV infusion will be halted. The animals will be placed individually in activity cages and their activity will be assessed daily for five days. Test drug or placebo will be added to the drinking water at a dosage of 5% wt/vol. The blinded results will be observed for: first movement (return to consciousness following the sham operation) and daily activity over the first day and next five days. Food and water intake and gastrointestinal function will be measured.

[4] = system: patients selected for OCBP revascularization; assay: presurgical oral ribose loading, off cardiopulmonary bypass (OCBP) revascularization trial; type: in vivo, human; settings: oral D-ribose preoperatively (24 patients) vs no ribose (20), baseline to post-operative, p<0.028
Text: Patients with stable coronary artery disease or patients presenting with acute myocardial infarction may undergo revascularization using an “off” cardiopulmonary bypass procedure (“OCBP”). This procedure avoids the deleterious effects of cross-clamping in patients who can be selected for the procedure. The selection criteria include: accessibility of the grafts; number of the grafts; condition of the patient. When the area to be revascularized is at the back of the heart, the heart will need to be handled and rotated, which would interfere with the beating of the heart. If several grafts are needed, the time of operation is prolonged and the patient's heart will need to support circulation for a long time. Finally, a poorly functioning heart will need the assistance of the pump to support circulation. Nevertheless, in properly selected patients, the benefits of avoiding cross-clamping are substantial.
Forty-four adult patients were enrolled in a trial. At least one-third of the patents had sustained an acute myocardial infarction prior to presentation and pre-operative ejection fractions ranged from 30-72%. All patients were selected for OCBP revascularization with 20 patients comsuming no pre-operative ribose and 24 patients given oral D-ribose preoperatively, cardiac indices were measured at baseline and post-operatively. […]

[5] = system: patients undergoing AVR with aortic cross clamping; assay: planned trial of preoperative oral plus intravenous D-Ribose before cross clamping (Example 3); type: in vivo, human; settings: oral D-Ribose preloading plus IV 100 mg/kg/hour with D-Glucose, vs placebo
Text: A single-center, randomized, double-blinded placebo-controlled clinical trial was designed to determine if preoperative oral administration of D-Ribose, following by peri-operative and operative intravenous infusion of D-Ribose could improve the ejection fraction and other functional parameters of hearts that are cross-clamped for various cardiac surgical procedures. Thirty (30) patients meeting the inclusion and exclusion criteria and who have signed informed consent forms will be randomized to receive oral D-Ribose (15) or D-Glucose (placebo) (15) for seven or 14 days prior to their surgical procedure and intravenous 5% […] (5% D-Glucose in normal saline, 0.5 mL/kg/hour) or 10% pyrogen-free D-Ribose in 5% D5W at a dose of 100 mg/kg/hour for five (5) days through a pulmonary artery cordis) beginning at the time of aortic cross clamping. […] Patients will be evaluated baseline×2, (once prior to beginning oral test supplement and again within three days prior to surgical procedure), during and after surgery, and at days 1, 5 and 7. […] Patients will be evaluated for eligibility within three days to first test article administration and evaluation will be updated within three days prior to surgery. […] A medication history will be taken and all medications recorded in the case report. […]

[6] = system: myocardial dysfunction resulting from globally induced ischemia during cardiac surgical procedures; type: in vivo, human
Text: Inclusion criteria were: • Males or females aged 18 or older • Patients with documented coronary artery disease undergoing CABG with an ejection fraction (EF) of ≦35% based on echocardiography, radionuclide imaging or cardiac catheterization done within eight weeks of surgery. (If more than one method was used to evaluate EF during this period, the mean values of the various methods were ≦35%). • Patients undergoing single or double valve replacement with documented coronary artery disease also undergoing CABG; or patients undergoing single or double valve replacement without CABG • Serum creatinine of ≦2.35 mg/dl • For females of childbearing potential, a negative pregnancy test. • Signed consent forms. The test article, placebo or ribose, was dispensed according to computer-generated randomization schedule either for patients undergoing CABG only or for patients undergoing heart valve surgery +/-CABG. All patients received a high dose narcotic anaesthesia technique consisting of either fentanyl (50-100 μg/kg) or sufentanil (10-20 μg/kg) and midazolam. No restriction was placed on the type of anaesthetic agents administered. The anaesthesiologists and surgeons responsible for the care of the patents made the clinical decision to use inotropic support, intra-aortic balloon pump support or post bypass circulatory support based on their knowledge of patients requirements and accepted medical practice and without regard to test article status. The test article infusion was started intravenously at the time of aortic cross clamping and continued until the pulmonary artery catheters introducer was removed or for five days (120) hours whichever occurred first. The surgeons responsible for the clinical care of the patients removed the pulmonary artery catheter cordis without regard to test article stats. Hemodynamic measurements consisting of heart rate, blood pressure, pulmonary artery pressures, pulmonary capillary wedge pressure (PCWP), central venous pressure (CVP) and thermodilution cardiac index (CI) were obtained at the following time intervals: immediately prior to induction of anaesthesia, post induction of anaesthesia prior to sternotomy, post sternotomy prior to initiation of cardiopulmonary bypass, upon successful termination of cardiopulmonary bypass prior to sternal closure and prior to reversal of heparinization with protamine, post closure of the sternum, upon arrival in the intensive care unit and at one or two hour intervals until the pulmonary artery a catheter was removed. Transesophageal echocardiography data (H.P. Sonos OR, 5.0 MHz, Andover, Mass.) was collected at the following time intervals: post induction of anaesthesia prior to sternotomy, and immediately post closure of the sternum. Transthoracic echocardiography (H.P. Sonos 1500. 2.5 MHz, Andover, Mass.) measurements were made on day three and day seven of the study period. For both the transesophageal and transthoracic echocardiograms, the following long axis and short axis mid-papillary area changes were measured in triplicate by acoustic quantification techniques: end diastolic area (EDA), end systolic area (ESA), fractional area change (FAC), +dA/dt and -dA/dt. All area change data were also analyzed by manual off line analysis. EF was also determined off line using a long axis view. In addition, regional wall motion was quantified as the following: normal=1, hypokinetic=2, akinetic=3 and dyskinetic=4. The wall motion index score (WMIS) and percentage normal myocardium were calculated by reading a maximum of sixteen segments. Echocardiography data for evaluating wall motion and area change was analyzed only if greater than 75% of the endocardial border could be visualized through a complete cardiac cycle. […]

[7] = system: healthy dog hearts after 20 minute normothermic global myocardial ischemia; settings: D-Ribose from reperfusion for at least four days; cited from earlier work
[8] = system: procedural pain in neonates; settings: glucose solution on the tongue; cited from earlier work
[9] = second hip replacement, oral ribose after anaesthesia

Q: Which “tolerability (metabolic or chemical abnormalities)” value ([1]; in vivo, iv) does the source give for `O=C[C@H](O)[C@H](O)[C@H](O)CO` [D-Ribose] here?
A: no metabolic or chemical abnormalities

Q: And the “time quiet and inactive after extubation” value ([1]; sheep given ribose)?
A: about one

Q: And the “time to eating solid food” value ([1]; sheep given ribose, some animals, after the quiet period)?
A: within the next hour

Q: What about the “time to assume a consciousness state upon weaning from the ventilator” value ([1]; sheep, vs animals not given ribose) of the same molecule?
A: faster

Q: What about the “time to cardiac arrest with cardioplegia” value ([1]; sheep, vs animals not given ribose, difference not statistically significant) of the same molecule?
A: somewhat faster

Q: What about the level of pain [2, 9] of the same molecule?
A: less

Q: What about the “recovery to a feeling of alertness and energy” value [2, 9] of the same molecule?
A: more rapid

Q: What about the “recovery to a feeling of alertness and energy” value ([2]; second knee replacement, D-Ribose pre- and postoperatively) of the same molecule?
A: more rapid

Q: And the “expected movement after anaesthesia and activity during the following five days” value [3]?
A: earlier movement after anaesthesia and increased activity

Q: And the “greater increase in cardiac indices compared to controls” value [4]?
A: 49%

Q: And the “expected myocardial function and recovery” value [5]?
A: better myocardial function

Q: What about the “patients who developed hypoglycemia (fingerstick glucose<70 mg/dl)” value ([6]; both, human, in vivo) of the same molecule?
A: 28%

Q: And the lowest glucose level ([6]; human, in vivo)?
A: 31 mg/dL

Q: What about the “mean glucose level in those patients developing hypoglycemia” value ([6]; human, in vivo) of the same molecule?
A: 58 mg/dL

Q: What about the “neurological or other clinical symptoms associated with hypoglycemia” value ([6]; human, in vivo) of the same molecule?
A: None of these patients developed neurological or other clinical symptoms

Q: What about the “mean Day 7 EF” value ([6]; ribose treated patients, Day 7, echocardiography, IV 100 mg/kg/hr, p=0.49 vs baseline) of the same molecule?
A: 41%

Q: And the “mean baseline EF” value ([6]; ribose treated patients, baseline, echocardiography, IV 100 mg/kg/hr)?
A: 44%

Q: And the “change of EF from baseline to Day 7” value ([6]; ribose treated patients, placebo EF declined, treatment effect p=0.04)?
A: unchanged

Q: What about the ATP recovery [7] of the same molecule?
A: enhanced ATP recovery

Q: With `O=C[C@H](O)[C@@H](O)[C@H](O)[C@H](O)CO` [glucose, D-Glucose] as the molecule, how does the “degree of pain experienced during venous blood sampling” value [8] read?
A: reduced the degree of pain
